# Results published in paper PMC3306999 (Journal of Toxicology, 2012).
# Read-outs that look alike come from different tables or passages of the source.
# What was measured:
# MAO-B [1] = biological target: T1, MAO-B (Rattus norvegicus, UniProt P19643); assay: Cerebellar MAO-B activity (radiochemical, 14C-PEA) after perinatal exposure; assay type: in vivo; details: for decrease of cerebellar MAO-B activity: male pups PD21, maternal oral MeHg 1 mg/kg/day GD7-PND7 and/or PCB153 20 mg/kg/day GD10–GD16, vs control 19.26 ± 2.05 nmol/mg protein/h
# T1 construct: from tissue; host or cells: rat cerebellum homogenate (dams and PD21 offspring)
# T1 sequence (P19643 whole entry): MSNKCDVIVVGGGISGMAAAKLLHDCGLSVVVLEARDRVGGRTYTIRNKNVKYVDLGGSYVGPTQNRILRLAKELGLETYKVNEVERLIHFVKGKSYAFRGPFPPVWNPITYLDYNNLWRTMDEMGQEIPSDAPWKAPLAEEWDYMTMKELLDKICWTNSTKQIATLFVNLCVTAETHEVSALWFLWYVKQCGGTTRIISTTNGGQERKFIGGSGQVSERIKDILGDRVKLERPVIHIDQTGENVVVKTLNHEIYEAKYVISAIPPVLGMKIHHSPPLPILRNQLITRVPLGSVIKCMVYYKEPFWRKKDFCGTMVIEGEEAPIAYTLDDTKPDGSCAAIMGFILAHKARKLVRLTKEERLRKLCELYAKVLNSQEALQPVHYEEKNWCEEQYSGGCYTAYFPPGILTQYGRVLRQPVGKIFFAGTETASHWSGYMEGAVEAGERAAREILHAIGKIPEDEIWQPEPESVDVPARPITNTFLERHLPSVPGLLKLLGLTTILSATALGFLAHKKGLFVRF
# Method: (§1) The experimental regimen comprises 0.5 and 1 mg MeHg/kg (body weight) bw/day, administered to rat dams in the drinking water from gestational day (GD)7 to postnatal (PD)7, and/or PCB153 (20 mg/kg/day) dissolved in corn oil, administered to rats from GD10 to GD16.
# (§2) The endpoints investigated in rats included total cholinergic MRs and MAO-B activity in cerebellum and total MRs in lymphocytes at weaning (i.e., PD21) both in dams and their offspring.
# (§3) At the day of sacrifice, rat brains were rapidly dissected on ice to isolate cerebellum from dams and offspring and stored at −80°C until the analyses were performed. Spleens were also collected.
# (ii) MAO-B activity was determined radiochemically as described by Young et al., 1986 [71] using 10 μM ^14C-PEA as the substrate. Specific MAO-B activity was determined in the presence of 100 μM pargyline hydrochloride. The reaction was started by addition of ^14C-PEA to 50 μL of tissue homogenate (0.2 mL final volume) and stopped by addition of 0.1 mL citric acid 2 M after a 15-min incubation at 37°C. Deaminated reaction products were extracted into 3 mL toluene-ethylacetate (1 : 1, v/v) and the radioactivity contained in a 1-mL aliquot of the organic phase was counted in scintillation counter. The enzyme activity was expressed as nmol/mg protein/h.
# [2] = system: cholinergic muscarinic receptors (MRs); assay type: in vivo, rat; details: for effect on cerebellar dissociation constant (Kd) of [3H]QNB: rat, in vivo; for increase of cerebellar MRs density (Bmax): MeHg 1 mg/kg/day GD7-PND7
# [3] = assay type: in vivo, rat
# Method: as §1
# Measurements of total Hg in cerebellum and blood also complemented the molecular studies to correlate neurochemical changes with the internal doses (see methods in [43, 52, 73]).
# [4] = biological target: cholinergic muscarinic receptors (MRs) in lymphocytes; assay: Spleen lymphocyte MR density and affinity after perinatal exposure; assay type: in vivo, rat
# Method: as §1, §2, §3
# (i) Rat lymphocytes were obtained from the spleen of controls and differently treated animals. MR density and affinity in rat lymphocytes were determined as described in [52].
# [5] = assay type: in vivo, rat; details: MeHg 1 mg/kg/day; whole brain
# MAO-B [6] = details: St. Lawrence River (Lake St. Pierre, Quebec) fish-eating population; ref Stamler et al. 2006 [68]; cited from earlier work
# [7] = 21-day-old, same treatments, mean ± S.D.
smiles,measurement,setting,value
"Clc1cc(Cl)c(-c2cc(Cl)c(Cl)cc2Cl)cc1Cl [PCB153, 2,2′,4,4′,5,5′-hexachlorobiphenyl]",decrease of cerebellar MAO-B activity,MAO-B [1],45%
same,effect on cerebellar MRs density,"[2]; adult and offspring PD21, PCB153 20 mg/kg/day GD10–GD16 alone or with MeHg 1 mg/kg/day",did not modify
same,effect on cerebellar dissociation constant (Kd) of [3H]QNB,[2],did not affect
same,effect of PCB153 coexposure on brain Hg concentrations,[3]; MeHg 1 mg/kg/day + PCB153,not affected
"[CH3][Hg][Cl] [MeHg, methylmercury]",effect on MAO-B activity,"MAO-B [1]; lower MeHg dose 0.5 mg/kg/day GD7-PND7, male and female offspring",no effects
same,decrease of cerebellar MAO-B activity,MAO-B [1],35%
same,increase of cerebellar MRs density (Bmax),"[2]; dams, PD21",87%
same,effect on cerebellar MR density,"[2]; lower MeHg dose 0.5 mg/kg/day alone or in combination with PCB153, mother and offspring",did not cause any change
same,increase of cerebellar MRs density (Bmax),[2]; male pups PD21,27%
same,effect on cerebellar dissociation constant (Kd) of [3H]QNB,[2],did not affect
same,effect on lymphocyte Kd values,"[4]; MeHg 1 mg/kg/day, dams and offspring",absence of any change
same,increase of lymphocyte MR density (Bmax),"[4]; dams, MeHg 1 mg/kg/day GD7-PND7, vs control 33 ± 4 fmol/million cells",139%
same,increase of lymphocyte MR density (Bmax),"[4]; female offspring 21 days old, MeHg 1 mg/kg/day, vs control 37 ± 4 fmol/million cells",73%
same,effect on lymphocyte Kd values,[4]; lower MeHg dose 0.5 mg/kg/day,devoid of any effect
same,effect on lymphocyte MR density,"[4]; lower MeHg dose 0.5 mg/kg/day, all groups, day 21 postpartum",did not significantly differ
same,increase of lymphocyte MR density (Bmax),"[4]; male offspring 21 days old, MeHg 1 mg/kg/day, vs control 41 ± 8 fmol/million cells",49%
same,"Blood Hg, Dams","[3]; 1 mg MeHg/kg bw/day GD7-PD7 and/or 20 mg PCB153/kg bw/day GD10–GD16, mean ± S.D.",11.33 ± 2.26 n = 4 μg/ml
same,"Blood Hg, Offspring Female",[3]; [7],1.31 ± 0.40 n = 4 μg/ml
same,"Blood Hg, Offspring Male",[3]; [7],1.35 ± 0.40 n = 4 μg/ml
same,"Brain Hg, Offspring Female",[3]; [7],1.52 ± 0.33 n = 4 μg/g
same,"Brain Hg, Offspring Male",[3]; [7],1.67 ± 0.43 n = 4 μg/g
same,Hg in rat blood at PD21,[3]; perinatal 1 mg MeHg/kg/day,1300 ppb
same,cerebral Hg levels in weaning rats,[3]; perinatal 1 mg MeHg/kg/day,1.5–2.8 ppm
same,blood Hg levels in weaning rats,"[3]; perinatal 1 mg MeHg/kg/day, both pup genders",1.3 ± 0.4 µg/mL
same,Hg levels in pup blood,"[3]; pups, both genders, MeHg 1 mg/kg/day",1.35 ± 0.4 mg/L
same,"Brain Hg, Dams",[3]; same treatments,7.53 µg/g
same,"brain Hg concentration, mother versus offspring",[5],about five-fold higher
same,blood-Hg concentrations associated with MeHg-induced reduction in MAO-B activity,MAO-B [6],above 3.4 μg/L
